The values that follow are results of earlier work, collected in US20230094837A1, “Biodegradable and Multifunctional Neural Block Devices” (The Penn State Research Foundation, priority 2020, published 2023).

This series deals with femur mineral density. The following applies: rats, oral administration.

In the case of `OC[C@@H](O)[C@H](O)[C@@H](O)CO` [xylitol], the “effect on femur mineral density” value was “increased femur mineral density”.
